# Assay results from patent publication US5712417A, “Inhibitors of retroviral proteases” (Abbott Laboratories, priority 1989, dated 1998).
# pIC50: −log10 of the molar value. Structures can show the parent of a compound that is named as a salt.
# Target: T1, HIV protease (Human immunodeficiency virus type 1 group M subtype B, UniProt P04585)
# T1 construct: HIV protease consists of 99 amino acids and is evidently split off by itself from the pol polyprotein
# Assay: Inhibition of HIV protease (cleavage of H-Ser-Phe-Asn-Phe-Opr-Gln-Ile-OH, HPLC)
# Assay type: biochemical
# Settings: not given
# Method in brief: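 Substrate H-Ser-Phe-Asn-Phe-Opr-Gln-Ile-OH in MGTE buffer (MES, glycerol, Triton X-100, PMSF, pH 6) preincubated with inhibitor at 37 °C for 5-10 min, then reacted with protease at 35 °C for 2 h. RP18 HPLC at 215 nm; tetrapeptide fraction gives cleavage rate, IC50 where rate is halved.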
row,Structure (SMILES),pIC50
1,"CC(C)[C@H](NC(=O)[C@H](Cc1ccccc1)NC(=O)[C@H](O)[C@@H](O)[C@H](O)[C@H](O)CO)C(=O)N[C@@H](Cc1ccccc1)[C@@H](O)[C@H](O)[C@H](Cc1ccccc1)NC(=O)[C@@H](NC(=O)[C@H](Cc1ccccc1)NC(=O)[C@H](O)[C@@H](O)[C@H](O)[C@H](O)CO)C(C)C [Example 110, N,N'-bis-<D-Gluconyl-L-phenylalanyl-L-valyl>-2S,5S-diamino-1,6-diphenylhexane-3R,4R-diol]",9.00

# Same assay, conditions: inhibitor concentration at which the cleavage rate is halved; pH 6, 2 hours
row,Structure (SMILES),pIC50
1,"CC(C)[C@H](NC(=O)[C@H](Cc1ccccc1)NC(=O)[C@H]1CC[C@@H](NC(=O)OC(C)(C)C)CC1)C(=O)N[C@@H](Cc1ccccc1)[C@H](O)[C@@H](O)[C@H](Cc1ccccc1)NC(=O)[C@@H](NC(=O)[C@H](Cc1ccccc1)NC(=O)[C@H]1CC[C@@H](NC(=O)OC(C)(C)C)CC1)C(C)C [Example 50, N,N'-bis-(4Z -N-tert.-Butoxycarbonylamino)-cyclohexanecarbonyl-L-phenylalanyl-L-valyl)-2S, 5S-diamino-1,6-diphenyl-4S, 5S-diol dihydrochloride]",7.35

# Same assay, conditions: inhibitor concentration at which the cleavage rate is halved; pH 6, 2 hours; read-out: IC50
row,Structure (SMILES),pIC50
1,"CC(C)[C@H](NC(=O)[C@@H](CC(=O)N1CCC(NC(=O)OC(C)(C)C)CC1)Cc1ccccc1)C(=O)N[C@@H](Cc1ccccc1)[C@@H](O)[C@H](O)[C@H](Cc1ccccc1)NC(=O)[C@@H](NC(=O)[C@@H](CC(=O)N1CCC(NC(=O)OC(C)(C)C)CC1)Cc1ccccc1)C(C)C [Example 100, N,N'-bis-<2R-Benzyl-3-(4-tert.-butoxycarbonylamino-1-piperidylcarbonyl)-propionyl-n-valyl>-2S,5S-diamino-1,6-diphenylhexane-3R,4R-diol dihydrochloride]",6.40
2,"CC(C)[C@H](NC(=O)[C@@H](CC(=O)OC(C)(C)C)Cc1ccccc1)C(=O)N[C@@H](Cc1ccccc1)[C@@H](O)[C@H](O)[C@H](Cc1ccccc1)NC(=O)[C@@H](NC(=O)[C@@H](CC(=O)OC(C)(C)C)Cc1ccccc1)C(C)C [Example 102, N,N'-bis-<(2R-Benzyl-3-tert.-butoxycarbonyl)-propionyl-L-valyl>-2S,5S-diamino-1,6-diphenylhexane-3R,4R-diol]",7.42
3,"CC(C)[C@H](NC(=O)[C@H](Cc1cccc2ccccc12)NC(=O)OC(C)(C)C)C(=O)N[C@@H](Cc1ccccc1)[C@@H](O)[C@H](O)[C@H](Cc1ccccc1)NC(=O)[C@@H](NC(=O)[C@H](Cc1cccc2ccccc12)NC(=O)OC(C)(C)C)C(C)C [Example 40, N,N'-bis-(tert.-Butoxycarbonyl-L-(1-naphthyl)-alanyl-L-valyl)-2S,5S-diamino-1,6-diphenylhexane-3R,4R-diol]",7.89
4,"CSCC[C@H](NC(=O)OC(C)(C)C)C(=O)N[C@H](C(=O)N[C@@H](Cc1ccccc1)[C@H](O)[C@@H](O)[C@H](Cc1ccccc1)NC(=O)[C@@H](NC(=O)[C@H](CCSC)NC(=O)OC(C)(C)C)C(C)C)C(C)C [Example 75, N,N'-bis-<tert.-Butoxycarbonyl-L-methionyl-L-valyl>-2S,5S-diamino-1,6-diphenylhexane-3S,4S-diol]",7.72
5,"CC(C)[C@H](NC(=O)[C@@H](N)Cc1ccc(O)cc1)C(=O)N[C@@H](Cc1ccccc1)[C@H](O)[C@@H](O)[C@H](Cc1ccccc1)NC(=O)[C@@H](NC(=O)[C@@H](N)Cc1ccc(O)cc1)C(C)C [Example 78, N,N'-bis-<L-Tyrosyl-L-valyl>-2S,5S-diamino-1,6-diphenyl-hexane-3S,4S-dioldihydrochloride]",8.74
6,"CC(C)[C@H](NC(=O)[C@H](Cc1ccccc1)NC(=O)OC(C)(C)C)C(=O)N[C@@H](Cc1ccccc1)[C@H](O)[C@H](O)[C@H](Cc1ccccc1)NC(=O)[C@@H](NC(=O)[C@H](Cc1ccccc1)NC(=O)OC(C)(C)C)C(C)C [Example 7, N,N'-bis-(tert.-Butoxycarbonyl-L-phenylalanyl-L-valyl)-2S,5S-diamino-1,6-diphenylhexane-3R,4S-diol]",7.74
7,"CC(C)[C@H](NC(=O)C(CNC(=O)OC(C)(C)C)Cc1ccccc1)C(=O)N[C@@H](Cc1ccccc1)[C@@H](O)[C@H](O)[C@H](Cc1ccccc1)NC(=O)[C@@H](NC(=O)C(CNC(=O)OC(C)(C)C)Cc1ccccc1)C(C)C (single isomer, unassigned) [Example 105, N,N'-bis-<(2-Benzyl-3-tert.-butoxycarbonylamino)-propionyl-L-valyl>-2S,5S-diamino-1,6-diphenylhexane-3R,4R-diol]",7.72

# The remaining lines, values ahead:
row,pIC50,Structure (SMILES)
1,8.74,"CC(C)[C@H](NC(=O)[C@@H](N)CCS(C)(=O)=O)C(=O)N[C@@H](Cc1ccccc1)[C@@H](O)[C@H](O)[C@H](Cc1ccccc1)NC(=O)[C@@H](NC(=O)[C@@H](N)CCS(C)(=O)=O)C(C)C [Example 89, N,N'-bis-<L-(S-Dioxo)methionyl-L-valyl>-2S,5S-diamino-1,6-diphenylhexane-3R,4R-diol dihydrochloride]"
2,6.59,"CC(C)[C@H](NC(=O)[C@@H](Cc1cccs1)CS(=O)(=O)C(C)(C)C)C(=O)N[C@@H](Cc1ccccc1)[C@@H](O)[C@H](O)[C@H](Cc1ccccc1)NC(=O)[C@@H](NC(=O)[C@@H](Cc1cccs1)CS(=O)(=O)C(C)(C)C)C(C)C [Example 54, N,N,-bis-<(2R-(1,1-Dimethylethylsulfonylmethyl)-3-(2-thienyl)-propionyl)-L-valyl>-2S,5S-diamino-1,6-diphenyl-hexane-3R,4R-diol]"
3,8.05,"CC(C)[C@H](NC(=O)[C@@H](N)CCC(=O)O)C(=O)N[C@@H](Cc1ccccc1)[C@H](O)[C@@H](O)[C@H](Cc1ccccc1)NC(=O)[C@@H](NC(=O)[C@@H](N)CCC(=O)O)C(C)C [Example 82, N,N,-bis-<L-Glutamyl-L-valyl>-2S,5S-diamino-1,6-diphenyl-hexane-3S,4S-dioldihydrochloride]"
4,9.00,"CC(C)[C@H](NC(=O)[C@@H](N)Cc1ccccc1)C(=O)N[C@@H](Cc1ccc2c(c1)OCO2)[C@@H](O)[C@H](O)[C@H](Cc1ccc2c(c1)OCO2)NC(=O)[C@@H](NC(=O)[C@@H](N)Cc1ccccc1)C(C)C [Example 154, N,N'-bis-(L-Phenylalanyl-L-valyl)-2S,5S-diamino-1,6-bis-(3,4-methylenedioxyphenyl)-hexane-3R,4R-diol dihydro-chloride]"
5,8.30,"CC(C)[C@H](NC(=O)[C@H](Cc1ccccc1)NC[C@@]1(O)OC[C@@H](O)[C@@H](O)[C@@H]1O)C(=O)N[C@@H](Cc1ccccc1)[C@H](O)[C@@H](O)[C@H](Cc1ccccc1)NC(=O)[C@@H](NC(=O)[C@H](Cc1ccccc1)NC[C@@]1(O)OC[C@@H](O)[C@@H](O)[C@@H]1O)C(C)C [Example 109, N,N'-bis-<N-(β-D-1-Deoxyfructos-1-yl-L-phenylalanyl-L-valyl>-2S,5S-diamino-1,6-diphenylhexane-3S,4S-diol diacetate]"
6,7.33,"CC(C)[C@H](NC(=O)CSc1ccncc1)C(=O)N[C@@H](Cc1ccccc1)[C@@H](O)[C@H](O)[C@H](Cc1ccccc1)NC(=O)[C@@H](NC(=O)CSc1ccncc1)C(C)C [Example 59, N,N'-bis-<(4-Pyridylthio)-acetyl-L-valyl>-2S,5S-diamino-1,6-diphenylhexane-3R,4R-diol]"
7,8.40,"CCCCC[C@H](NC(=O)[C@@H](NC(=O)[C@@H](N)Cc1ccccc1)C(C)C)[C@@H](O)[C@H](O)[C@H](CCCCC)NC(=O)[C@@H](NC(=O)[C@@H](N)Cc1ccccc1)C(C)C [Example 151, N,N'-bis-(L-Phenylalanyl-L-valyl )-6S, 9S-diamino-tetradecane-7R, 8R-diol dihydrochloride]"
8,7.66,"CC(C)[C@H](NC(=O)C(Cc1ccccc1)C[S+]([O-])Cc1ccccc1)C(=O)N[C@@H](Cc1ccccc1)[C@@H](O)[C@H](O)[C@H](Cc1ccccc1)NC(=O)[C@@H](NC(=O)C(Cc1ccccc1)C[S+]([O-])Cc1ccccc1)C(C)C (stereo partly drawn) [Example 121, N,N'-bis-<(2-(Benzylsulfinylmethyl)-3-phenylpropionyl)-L-valyl>-2S,5S-diamino-1,6-diphenylhexane-3R,4R-diol]"
9,5.52,"CC(C)[C@H](NC[C@@H](N)Cc1ccccc1)C(=O)N[C@@H](Cc1ccccc1)[C@H](O)[C@@H](O)[C@H](Cc1ccccc1)NC(=O)[C@@H](NC[C@@H](N)Cc1ccccc1)C(C)C [Example 28, N,N'-bis-(2S-<2S-Amino-3-phenylpropyl>-amino-3-methyl-butanoyl)-2S,5S-diamino-1,6-diphenylhexane-3S,4S-diol tetrahydrochloride]"
10,7.02,"CC(C)[C@H](NC(=O)[C@@H](N)Cc1ccccc1)C(=O)NCCCCNC(=O)[C@@H](NC(=O)[C@@H](N)Cc1ccccc1)C(C)C [Example 145, N,N'-bis-<L-Phenylalanyl-L-valyl>-1.4-diaminobutane dihydrochloride]"
11,9.54,"COc1ccc(C[C@H](N)C(=O)N[C@H](C(=O)N[C@@H](Cc2ccccc2)[C@H](O)[C@@H](O)[C@H](Cc2ccccc2)NC(=O)[C@@H](NC(=O)[C@@H](N)Cc2ccc(OC)cc2)C(C)C)C(C)C)cc1 [Example 76, N,N'-bis-<(O-Methyltyrosyl-L-valyl>-2S,5S-diamino-1,6-diphenylhexane-3S,4S-dioldihydrochloride]"

# Same assay, conditions: inhibitor concentration at which the cleavage rate is halved; unit as printed for Ex. 13; read-out: IC50
row,pIC50,Structure (SMILES)
1,8.89,"CC(C)[C@H](NC(=O)[C@H](Cc1cccc2ccccc12)CS(=O)(=O)C(C)(C)C)C(=O)N[C@@H](Cc1ccccc1)[C@@H](O)[C@H](O)[C@H](Cc1ccccc1)NC(=O)[C@@H](NC(=O)[C@H](Cc1cccc2ccccc12)CS(=O)(=O)C(C)(C)C)C(C)C [Example 13, N,N'-bis-<(2S-(1,1-Dimethylethylsulfonylmethyl)-3-(1-naphthyl)-propionyl)-L-valyl>-2S,5S-diamino-1,6-diphenylhexane-3R,4R-diol]"

# Same assay, conditions: read-out: IC50
row,pIC50,Structure (SMILES)
1,8.92,"CC(C)[C@H](NC(=O)[C@@H](N)Cc1c[nH]c2ccccc12)C(=O)N[C@@H](Cc1ccccc1)[C@@H](O)[C@H](O)[C@H](Cc1ccccc1)NC(=O)[C@@H](NC(=O)[C@@H](N)Cc1c[nH]c2ccccc12)C(C)C [Example 118, N,N'-bis-<L-Tryptophyl-L-valyl>-2S,5S-diamino-1,6-diphenylhexane-3R,4R-dioldihydrochloride]"
